The values below come from patent publication US10752624B2, “Kinase inhibitors” (Origenis GmbH, priority 2012, dated 2020).

For the assay, the target named is LRRK2 (Homo sapiens, UniProt Q5S007). In words: LRRK2-LRRK2 G2019S-Assay (LanthaScreen Eu Kinase Binding Assay). The settings on record: 5 nM LRRK2, 10 nM tracer 236, 2 nM EU-Anti-GST antibody, 1 h at RT; read-out: LRRK2 Activities: IC50. The protocol:
In the assay LanthaScreen™ Eu Kinase Binding Assay by Invitrogen Corporation (Carlsbad) the effect of invention of a compound on the phosphorylation is determined by measurement of fluorescence intensity emission ratio based on the binding and displacement of a proprietary, Alexa Fluor® 647-labeled, ATP-competitive kinase inhibitor scaffold (kinase tracer) to the kinase of interest. Binding of the tracer to the kinase is detected using a europium-labeled anti-tag antibody, which binds to the kinase of interest. Simultaneous binding of both the tracer and antibody to the kinase results in a high degree of FRET (fluorescence resonance energy transfer) from the europium (Eu) donor fluorophore to the Alexa Fluor® 647 acceptor fluorophore on the kinase tracer. Binding of an inhibitor to the kinase competes for binding with the tracer, resulting in a loss of FRET. The fluorescence intensity ratio is directly proportional to the amount of peptide phosphorylation.
To the wells of an 384 well small volume plate (Greiner, Frickenhausen) are added (i) the compound under test in 5% DMSO/distilled water (5 μl), (ii) 5 μl of the kinase antibody mixture resulting in a final concentration 5 nM LRRK2 or their mutants, 2 nM EU-Anti-GST antibody in 1× kinase buffer A. The reaction was started with addition of (iii) 5 μl resulting in a final concentration of 10 nM tracer 236. The assay plate was incubated at RT for 1 h and fluorescence intensity readings were collected using a TECAN M1000 at two wavelengths of λex 340/λem 615 nm and λex 340/λem 665 nm with a delay time of 100 μs and an integration time of 200 μs after 60 minutes. The emission ratio was calculated by division of the acceptor/tracer emission ([…]) by the antibody/donor emission ([…]). The inhibitor concentration was plotted versus the emission ratio to determine the IC50 using XLFit 5.0 (IDBS, Guildford) to fit to a sigmoidal dose response curve with a variable slope.

LRRK2, sequence (Q5S007 970-2527 limits assumed): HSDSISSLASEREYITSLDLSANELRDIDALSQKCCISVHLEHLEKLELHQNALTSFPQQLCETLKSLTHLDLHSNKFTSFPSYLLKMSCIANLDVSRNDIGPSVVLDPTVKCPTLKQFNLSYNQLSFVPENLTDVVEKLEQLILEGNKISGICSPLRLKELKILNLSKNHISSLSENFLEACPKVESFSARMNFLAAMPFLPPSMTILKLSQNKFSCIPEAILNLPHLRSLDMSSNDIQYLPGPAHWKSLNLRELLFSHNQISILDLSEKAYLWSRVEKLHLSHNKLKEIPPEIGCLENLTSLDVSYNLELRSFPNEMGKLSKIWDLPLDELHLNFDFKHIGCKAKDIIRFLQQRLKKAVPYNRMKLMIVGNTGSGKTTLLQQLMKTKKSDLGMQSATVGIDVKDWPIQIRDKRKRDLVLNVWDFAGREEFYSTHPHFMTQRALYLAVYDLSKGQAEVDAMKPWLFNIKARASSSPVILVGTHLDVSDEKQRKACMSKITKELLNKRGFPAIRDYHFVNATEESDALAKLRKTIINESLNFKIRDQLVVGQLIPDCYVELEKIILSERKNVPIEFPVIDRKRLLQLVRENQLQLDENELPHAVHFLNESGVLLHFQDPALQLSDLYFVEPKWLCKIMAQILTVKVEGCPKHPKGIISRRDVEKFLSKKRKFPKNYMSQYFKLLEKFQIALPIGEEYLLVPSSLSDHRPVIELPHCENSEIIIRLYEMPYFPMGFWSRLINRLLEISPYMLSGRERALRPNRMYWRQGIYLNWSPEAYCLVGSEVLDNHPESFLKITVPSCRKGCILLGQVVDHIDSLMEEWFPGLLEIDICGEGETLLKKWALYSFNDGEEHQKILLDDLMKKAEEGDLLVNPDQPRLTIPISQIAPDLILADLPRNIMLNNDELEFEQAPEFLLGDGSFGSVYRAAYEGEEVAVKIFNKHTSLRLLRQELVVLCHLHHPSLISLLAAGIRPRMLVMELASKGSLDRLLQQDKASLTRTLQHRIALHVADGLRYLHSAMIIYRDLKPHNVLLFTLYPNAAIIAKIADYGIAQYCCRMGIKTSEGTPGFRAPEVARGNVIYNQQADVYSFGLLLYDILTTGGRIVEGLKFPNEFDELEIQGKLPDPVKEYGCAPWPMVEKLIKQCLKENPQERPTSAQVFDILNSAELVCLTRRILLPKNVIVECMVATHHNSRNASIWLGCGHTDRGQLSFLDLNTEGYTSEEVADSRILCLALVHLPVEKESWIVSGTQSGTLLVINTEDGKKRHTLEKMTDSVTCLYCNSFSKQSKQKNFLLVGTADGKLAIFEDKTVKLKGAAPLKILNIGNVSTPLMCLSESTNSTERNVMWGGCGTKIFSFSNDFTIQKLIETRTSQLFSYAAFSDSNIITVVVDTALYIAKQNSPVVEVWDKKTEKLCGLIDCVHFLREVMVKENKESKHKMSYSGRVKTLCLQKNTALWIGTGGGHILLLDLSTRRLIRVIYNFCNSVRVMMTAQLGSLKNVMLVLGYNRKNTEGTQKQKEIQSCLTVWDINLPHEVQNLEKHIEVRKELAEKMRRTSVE

Broadly, the IC50 is the concentration that gives 50% inhibition. On to `COCCCn1ncc(Nc2nc3ccc(S(C)(=O)=O)cc3c3cn[nH]c23)c1Cl` [Example 237, N-(5-chloro-1-(3-methoxypropyl)-1H-pyrazol-4-yl)-8-(methylsulfonyl)-3H-pyrazolo[3,4-c]quinolin-4-amine], for which the IC50 is 10 to 100 nM.

In the case of `Fc1cccc2nc(Nc3ccc(N4CCOCC4)nc3)c3[nH]ncc3c12` [Example 11, 9-fluoro-N-(6-morpholinopyridin-3-yl)-3H-pyrazolo[3,4-c]quinolin-4-amine], the IC50 lay within 100 to 1000 nM.

`COc1cccc2nc(Nc3cnn(C4CCOCC4)c3)c3[nH]ncc3c12` [Example 142, 9-methoxy-N-(1-(tetrahydro-2H-pyran-4-yl)-1H-pyrazol-4-yl)-3H-pyrazolo[3,4-c]quinolin-4-amine]: the half-maximal inhibitory concentration (IC50) was less than 10 nM.

On to `COc1cccc2nc(Nc3ccc(N4CCCC4=O)cc3)c3[nH]ncc3c12` [Example 68, 1-(4-((9-methoxy-3H-pyrazolo[3,4-c]quinolin-4-yl)amino)phenyl)pyrrolidin-2-one], for which the half-maximal inhibitory concentration (IC50) fell in the range of 10 to 100 nM.

Take `Cc1nn(C(C)C)cc1Nc1nc2ccc(S(C)(=O)=O)cc2c2cn[nH]c12` [Example 213, N-(1-isopropyl-3-methyl-1H-pyrazol-4-yl)-8-(methylsulfonyl)-3H-pyrazolo[3,4-c]quinolin-4-amine]: the IC50 was less than 10 nM.

For `CCN1C(=O)COc2ccc(Nc3nc4ccc(S(C)(=O)=O)cc4c4c[nH]nc34)cc21` [Example 342, 4-ethyl-6-((8-(methylsulfonyl)-2H-pyrazolo[3,4-c]quinolin-4-yl)amino)-2H-benzo[b][1,4]oxazin-3(4H)-one], the IC50 fell in the range of 10 to 100 nM.

For `COc1cccc2nc(Nc3ccc(C(=O)N4CCC(N5CCN(C)CC5)CC4)cc3)c3[nH]ncc3c12` [Example 39, (4-((9-methoxy-3H-pyrazolo[3,4-c]quinolin-4-yl)amino)phenyl)(4-(4-methylpiperazin-1-yl)piperidin-1-yl)methanone], the IC50 lay in the range of 10 to 100 nM.

Regarding `COCCn1ncc(Nc2nc3cccc(OC)c3c3cn[nH]c23)c1F` [Example 276, N-(5-fluoro-1-(2-methoxyethyl)-1H-pyrazol-4-yl)-9-methoxy-3H-pyrazolo[3,4-c]quinolin-4-amine], the IC50 is 10 to 100 nM.

Turning to `COCCn1cc(Nc2nc3ccc(S(C)(=O)=O)cc3c3cn[nH]c23)c(C)n1` [Example 209, N-(1-(2-methoxyethyl)-3-methyl-1H-pyrazol-4-yl)-8-(methylsulfonyl)-3H-pyrazolo[3,4-c]quinolin-4-amine], the IC50 was in the range of 10 to 100 nM.

For the compound `COc1cccc2c1nc(Nc1cnn(C(C)C)c1)c1[nH]ncc12` [Example 305, N-(1-isopropyl-1H-pyrazol-4-yl)-6-methoxy-3H-pyrazolo[3,4-c]quinolin-4-amine], the IC50 fell in the range of 10 to 100 nM.

With `CC(=O)N1CCN(c2ccc(Nc3nc4cccc(S(C)(=O)=O)c4c4cn[nH]c34)cc2)CC1` [Example 93, 1-(4-(4-((9-(methylsulfonyl)-3H-pyrazolo[3,4-c]quinolin-4-yl)amino)phenyl)piperazin-1-yl)ethan-1-one], the 50% inhibitory concentration (IC50) was 10 to 100 nM.

Regarding `COc1cccc2nc(Nc3c(C)nn(C(C)C)c3C)c3[nH]ncc3c12` [Example 234, N-(1-isopropyl-3,5-dimethyl-1H-pyrazol-4-yl)-9-methoxy-3H-pyrazolo[3,4-c]quinolin-4-amine], the half-maximal inhibitory concentration (IC50) fell in the range of 100 to 1000 nM.

As for `COc1ccc2nc(Nc3ccc(-c4cnco4)cc3)c3n[nH]cc3c2c1` [Example 37, 8-methoxy-N-(4-(oxazol-5-yl)phenyl)-2H-pyrazolo[3,4-c]quinolin-4-amine], the IC50 was less than 10 nM.

Turning to `COc1ccc2nc(Nc3ccc4c(c3)S(=O)(=O)C=C4)c3n[nH]cc3c2c1` [Example 13, 6-((8-methoxy-2H-pyrazolo[3,4-c]quinolin-4-yl)amino)benzo[b]thiophene 1,1-dioxide], the IC50 lay within 100 to 1000 nM.

As to `COc1ccc2nc(Nc3cnn(C(C)C(=O)O)c3)c3n[nH]cc3c2c1` (stereo not drawn) [Example 347, 2-(4-((8-methoxy-2H-pyrazolo[3,4-c]quinolin-4-yl)amino)-1H-pyrazol-1-yl)propanoic acid], the IC50 lay within 100 to 1000 nM.
